# In paper PMC12067444, “Synthesis and Pharmacological Characterization of Novel Peripheral Cannabinoid-1 Receptor Blockers Based on a Tricyclic Scaffold” (Journal of Medicinal Chemistry, 2025):
# Where two headings read alike, the source gives them in different places.
# What was measured:
# in vitro = settings: mouse
# Procedure: (§1) Protein binding of test compound in mouse brain using equilibrium dialysis […]
# (§2) method. Solution A (0. 5 mM) was prepared by mixing 10 µL of a 10 mM stock solution […]
# (§3) with 190 µL of DMSO. Subsequently, Solution B (0.02 mM) was prepared by adding […]
# (§4) 8 µL of solution A to 192 µL of 0.05 M sodium phosphate buffer. The final concentration of DMSO in Solution B was 4%.
# (§5) A 96-well plate was initially prepared by dispensing 380 µL aliquots of brain […]
# (§6) tissue into wells designated for the brain while t h e buffer was added to the remaining […]
# (§7) wells to serve as a control. Subsequently, 20 µL of Solution B (containing 0.02 mM of […]
# (§8) test and reference compounds) was spiked into the pre-loaded brain samples in the […]
# (§9) plate. This step yielded a final test concentration of 1 µM, containing 0.2% DMSO. A duplicate system was establi shed for the dialysis sampl es wherein brain tissu e was prepared against buffer. Initially, 100 µL aliquots of blank dialysis buffer were applied to the receiver side of the dialysis chambers. Subsequently, 100 µL aliquots of the brain […]
# (§10) tissue spiked with te st and reference compounds were applied to the donor side of the […]
# (§11) T0 brain samples for initial concentrations were prepared in duplicate. A 25µL […]
# (§12) aliquot of the brain spiked with test and reference compounds was transferred into a 96- […]
# (§13) well sample preparation plate. An equivalent volume of blank buffer was then added […]
# (§14) to each well. Af ter the 5-hour incubation period, aliquots of 25 µL wer e taken f r om t h e […]
# (§15) dialysis apparatus's donor and receiver sides and transferred into new sample […]
# (§16) preparation plates. An equal volume of the opposite matrix (blank buffer to brain and […]
# (§17) vice versa) was added to each well, resulting in a final volume of 50 µL in each well.
# (§18) The samples (both T0 and f i v e h) were then quenched with 200 µL of acetonitrile […]
# (§19) containing internal standard (IS) and vortexed at 600 rpm for 10 minutes. After […]
# (§20) vortexing, the samples were centrifuged at 5594 × g for 15 minutes. Subsequently, 50 […]
# (§21) µL of the supernatants were transferred to a new 96-well plate and mixed with 50 µL […]
# (§22) of Milli- Q water. T he sample plates wer e cover ed and stor ed in a f r eezer ( -20 ℃) until […]
# (§23) respectively. For data analysis, the following equations wer e used:
# (§24) % Bound = 100 × ([Donor]5h -[ Receiver] 5h) / [Donor] 5h
# (§25) % Recovery= 100 × ([Donor]5h +[Receiver] 5h) / [Initial] 0h
# (§26) Undiluted Fu (%) = (1/D) / [(1/Fu2-1 ) + 1/ D ]
# (§27) Whereas; D: Dilution factor = Dilution factor of brain: 4
# mouse brain tissue = experiment: in vitro; settings: mouse, 5 h, 1 µM
# Procedure: as §1, §2, §3, §4, §5, §6, §7, §8, §9, §10, §11, §12, §13, §14, §15, §16, §17, §18, §19, §20, §21, §22, §23, §24, §25, §26, §27
# [1] = Brain compound levels in the CNS side-effect study (Figure 2H); type: in vivo; settings: male, C57Bl/6J, mouse, brain; rimonabant 10 mg/kg PO, 1 h after administration
# Procedure: The ability of BNS808 and rimonabant (as a positive control) to induce centrally mediated hyperactivity in mice (A–C). Wild-type, male, C57Bl/6J mice received a single dose of rimonabant (10 mg/kg, PO), BNS808 (1 or 10 mg/kg, PO) or vehicle, and the Promethion High-Definition Behavioral Phenotyping System monitored the activity profile. In addition, the ability of BNS808 and rimonabant (as a positive control) to inhibit the hypomotility induced by a CB1R receptor agonist (HU210; 30 μg/kg, IP) was tested in wild-type, male, C57Bl/6J mice which received a single dose of rimonabant (10 mg/kg, PO) or BNS808 (1 or 10 mg/kg, PO) or vehicle (D–F). […] Data represent the mean ± SEM from 4 to 8 mice per group. *P < 0.05 vs Vehicle-treated control. ^#P < 0.05 vs rimonabant.
# mice = experiment: Cataleptic behavior (bar test) induced by WIN-55,212; type: in vivo, mouse; settings: rimonabant 10 mg/kg PO, BNS808 1 mg/kg; 30 min before WIN-55,212 3 mg/kg IP; bar test at 60 min
# Procedure: Catalepsy was assayed using the bar test. Mice were taken out of their home cages, and their forepaws were placed on a horizontal bar measuring 0.5 cm in diameter, positioned 4 cm above the bench surface. Typically, vehicle-treated mice released the bar within 2 s. Cataleptic behavior was defined as the mice remaining motionless, grasping onto the bar, with an arbitrary cutoff of 30 s. The CB1R antagonists, including rimonabant at doses 1 and 10 mg/kg and BNS808 at a dose of 1 mg/kg, were administered 30 min before the IP injection of 3 mg/kg WIN-55,212 (a CB1R agonist). The test was conducted 60 min after the administration of the agonist.
# [2] = Tissue distribution after acute oral administration; type: in vivo, mouse; settings: male, C57Bl/6J, mouse, 1 mg/kg PO, 1 h post-acute administration
# Procedure: Male C57Bl/6J mice aged 7–9 weeks (3–4 mice per compound) were fasted overnight before administering each test compound. The compounds were accurately weighed and mixed with an appropriate vehicle to prepare a clear oral solution. The formulations were freshly prepared on the dosing day, and the mice were administered the compound via oral gavage within 4 h of formulation preparation. 1, 2, 4, and 8 h after compound administration, the mice were euthanized, and approximately 200 μL of blood was collected via cardiac puncture for plasma preparation. Brain and liver tissues were harvested and processed for analysis. Sample analysis was performed using LC-MS/MS, as described in detail in the SI. […]
# calculated using the equation:
# Lucif er yellow = VV bbbbbbbbbbbbbbbbbbbb ×RR FFFF bbbbbbbbbbbbbbbbbbbb ×100 […]
# Measurements of BNS808 using LC-MS/MS. MS/MS analyses were conducted using a Sciex QTRAP® 6500+ mass spectrometer (Framingham, MA, USA). Air was […]
# Infinity 1031 nitrogen generator (Peak Scientific, Inchinnan, Scotland). Purified air […]
# generator to ensure a continuous and stable air supply.
"fraction unbound at 5 h, 1 µM (in vitro)","fraction unbound at 5 h, 1 µM (in vitro; tissue homogenate)",Fraction of bound (%) (mouse brain tissue),Undiluted Bound (%) (mouse brain tissue),"Kp at 1 h ([2]; brain / plasma, read-out: brain-to-plasma (B/P) ratio)","concentration at 1 h ([2]; brain, read-out: brain concentration)","Kp at 1 h ([2]; liver / plasma, read-out: liver/plasma (L/P) ratio)","concentration at 1 h ([2]; liver, read-out: liver concentration)","concentration at 1 h ([2]; plasma, read-out: plasma concentration)",Structure (SMILES),concentration at 1 h [1],"blockade of WIN-55,212-induced cataleptic behavior (mice)"
0.277,0.605,39.5%,72.3%,–,–,–,–,–,"CC(=O)CC(c1ccccc1)c1c(O)c2ccccc2oc1=O (centres unmarked) [Warfarin, reference compound]",–,–
–,–,–,–,4.28,128 ng/g,7.4,226 ng/g,30 ng/mL,Cc1c(C(=O)NN2CCCCC2)nn(-c2ccc(Cl)cc2Cl)c1-c1ccc(Cl)cc1 [rimonabant],600 ng/g,blocked the cataleptic behavior
